According to patent US20040029823A1, “Antisense oligonucleotide compositions and methods for the modulation of JNK proteins” (priority 1997, published 2004):

System: JNK1 mRNA
Experiment: Northern assay of JNK1 mRNA expression in A549 cells
Assay type: cell-based, human
Conditions: for % EXPRESSION: relative to LIPOFECTIN-only control; for Normalized % Control: JNK1 mRNA dose response
Description: In order to evaluate the activity of potential JNK-modulating oligonucleotides, human lung carcinoma cell line A549 (American Type Culture Collection, Rockville, Md. No. ATCC CCL-185) cells or other cell lines as indicated in the Examples, were grown and treated with oligonucleotides or control solutions as detailed below. After harvesting, cellular extracts were prepared and examined for specific JNK mRNA levels or JNK protein levels (i.e., Northern or Western assays, respectively). In all cases, “% expression” refers to the amount of JNK-specific signal in an oligonucleotide-treated cell relative to an untreated cell (or a cell treated with a control solution that lacks oligonucleotide), and “% inhibition” is calculated as
100%−% Expression =% Inhibition.
Northern Assays: The mRNA expression of each JNK protein was determined by using a nucleic acid probe specifically hybridizable thereto. Nucleic acid probes specific for JNK1, JNK2 and JNK3 are described in Examples 3, 4 and 5, respectively. The probes were radiolabelled by means well known in the art (see, e.g., Short Protocols in Molecular Biology, 2nd Ed., Ausubel et al., Eds., John Wiley & Sons, New York, 1992, pages 3-11 to 2-3-44 and 4-17 to 4-18; Ruth, Chapter 6 In: Methods in Molecular Biology, Vol. 26: Protocols for Oligonucleotide Conjugates, Agrawal, ed., Humana Press Inc., Totowa, N.J., 1994, pages 167-185; and Chapter 10 In: Molecular Cloning: A Laboratory Manual, 2nd Ed., Sambrook et al., Eds., pages 10.1-10.70). The blots were stripped and reprobed with a ^32P-labeled glyceraldehyde 3-phosphate dehydrogenase (G3PDH) probe (Clontech Laboratories, Inc., Palo Alto, Calif.) in order to confirm equal loading of RNA and to allow the levels of JNK transcripts to be normalized with regard to the G3PDH signals.
A549 cells were grown in T-75 flasks until 80-90% confluent. At this time, the cells were washed twice with 10 mL of media (DMEM), followed by the addition of 5 mL of DMEM containing 20 μg/mL of LIPOFECTIN™ (i.e., 1:1 (w/w) DOTMA/DOPE, Life Technologies, Gaithersburg, Md.; DOTMA=N-[1-(2,3-dioleyoxy)propyl]-N,N,N-trimethylammonium chloride; DOPE=dioleoyl phosphatidylethanolamine). The oligonucleotides were added from a 10 μM stock solution to a final concentration of 400 nM, and the two solutions were mixed by swirling the flasks. As a control, cells were treated with LIPOFECTIN™ without oligonucleotide under the same conditions and for the same times as the oligonucleotide-treated samples. After 4 hours at 37° C., the medium was replaced with fresh DMEM containing 10% serum. The cells were allowed to recover for 18 hours. Total cellular RNA was then extracted in guanidinium, subject to gel electrophoresis and transferred to a filter according to techniques known in the art (see, e.g., Chapter 7 In: Molecular Cloning: A Laboratory Manual, 2nd Ed., Sambrook et al., Eds., pages 7.1-7.87, and Short Protocols in Molecular Biology, 2nd Ed., Ausubel et al., Eds., John Wiley & Sons, New York, 1992, pages 2-24 to 2-30 and 4-14 to 4-29). Filters were typically hybridized overnight to a probe specific for the particular JNK gene of interest in hybridization buffer (25 mM KPO4, pH 7.4; 5×SSC; 5× Denhardt's solution, 100 μg/ml Salmon sperm DNA and 50% formamide) (Alahari et al., Nucl. Acids Res., 1993, 21, 4079). This was followed by two washes with 1×SSC, 0.1% SDS and two washes with 0.25×SSC, 0.1% SDS. Hybridizing bands were visualized by exposure to X-OMAT AR film and quantitated using a PHOSPHORIMAGER™ essentially according to the manufacturer's instructions (Molecular Dynamics, Sunnyvale, Calif.)
B. JNK1-specific probes: In initial screenings of a set of oligonucleotides derived from the JNK1 sequence (Table 2) for biological activity, a cDNA clone of JNK1 (Derijard et al., Cell, 1994, 76, 1025) was radiolabeled and used as a JNK1-specific probe in Northern blots. […]

[1] = JNK1 mRNA, A549 cells, 400 nM oligonucleotide
[2] = JNK1 mRNA, A549 cells, 400 nM oligonucleotide, 100% - % expression

Substance | % EXPRESSION [1] [%] | % INHIBITION [2] [%] | further results
11978 (antisense ATTCTTTCCACTCTTCTATT; DNA, all phosphorothioate, methylation of C not given here) [compound 11978] | 85 | 15 | –
11979 (antisense CTCCTCCAAGTCCATAACTT; DNA, all phosphorothioate, methylation of C not given here) [compound 11979] | 90 | 10 | –
11980 (antisense CCCGTATAACTCCATTCTTG; DNA, all phosphorothioate, methylation of C not given here) [compound 11980] | 85 | 15 | –
11981 (antisense CTGTGCTAAAGGAGAGGGCT; DNA, all phosphorothioate, methylation of C not given here) [compound 11981] | 62 | 28 | –
11982 (antisense ATGATGGATGCTGAGAGCCA; DNA, all phosphorothioate, methylation of C not given here) [compound 11982] | 13 | – | –
11983 (antisense GTTGACATTGAAGACACATC; DNA, all phosphorothioate, methylation of C not given here) [compound 11983] | 40 | – | –
11984 (antisense CTGTATCAGAGGCCAAAGTC; DNA, all phosphorothioate, methylation of C not given here) [compound 11984] | 53 | 47 | –
11985 (antisense TGCTGCTTCTAGACTGCTGT; DNA, all phosphorothioate, methylation of C not given here) [compound 11985] | 47 | – | –
11986 (antisense AGTCATCTACAGCAGCCCAG; DNA, all phosphorothioate, methylation of C not given here) [compound 11986] | 90 | 10 | –
11987 (antisense CCATCCCTCCCACCCCCCGA; DNA, all phosphorothioate, methylation of C not given here) [compound 11987] | 47 | – | –
11988 (antisense ATCAATGACTAACCGACTCC; DNA, all phosphorothioate, methylation of C not given here) [compound 11988] | 78 | 22 | –
11989 (antisense CAAAAATAAGACCACTGAAT; DNA, all phosphorothioate, methylation of C not given here) [compound 11989] | 60 | 40 | –
12463 (antisense CACGCTTGCTTCTGCTCATG; DNA, all phosphorothioate, methylation of C not given here) [compound 12463] | 23 | – | –
12464 (antisense CGGCTTAGCTTCTTGATTGC; DNA, all phosphorothioate, methylation of C not given here) [compound 12464] | 18 | – | –
12538 (antisense CCCGCTTGGCATGAGTCTGA; chemistry not fully specified) [compound 12538] | 33 | – | –
12548 (antisense ATTTGCATCCATGAGCTCCA; DNA, all phosphorothioate, methylation of C not given here) [compound 12548] | 5 | – | –
12549 (antisense CGTTCCTGCAGTCCTGGCCA; DNA, all phosphorothioate, methylation of C not given here) [compound 12549] | 28 | – | –
12550 (antisense GGATGACCTCGGGTGCTCTG; DNA, all phosphorothioate, methylation of C not given here) [compound 12550] | 40 | – | –
12551 (antisense CCCATAATGCACCCCACAGA; DNA, all phosphorothioate, methylation of C not given here) [compound 12551] | 52 | 48 | –
12552 (antisense CGGGTGTTGGAGAGCTTCAT; DNA, all phosphorothioate, methylation of C not given here) [compound 12552] | 34 | – | –
12553 (antisense TTTGGTGGTGGAGCTTCTGC; DNA, all phosphorothioate, methylation of C not given here) [compound 12553] | 25 | – | –
12554 (antisense GGCTGCCCCCGTATAACTCC; DNA, all phosphorothioate, methylation of C not given here) [compound 12554] | 11 | – | –
12555 (antisense TGCTAAAGGAGAGGGCTGCC; DNA, all phosphorothioate, methylation of C not given here) [compound 12555] | 27 | – | –
12556 (antisense AGGCCAAAGTCGGATCTGTT; DNA, all phosphorothioate, methylation of C not given here) [compound 12556] | 41 | – | –
12557 (antisense CCACCCCCCGATGGCCCAAG; DNA, all phosphorothioate, methylation of C not given here) [compound 12557] | 29 | – | –
14320 (sense CCAAGCGGGCCTACAGAGAG; DNA, all phosphorothioate, methylation of C not given here) [compound 14320] | – | – | Normalized % Control (50 nM): 103.6%; Normalized % Control (100 nM): 76.3%; Normalized % Control (200 nM): 98.9%; Normalized % Control (400 nM): 97.1%
14321 (CTTTCCGTTGGACCCCTGGG; DNA, all phosphorothioate, methylation of C not given here) [compound 14321] | – | – | Normalized % Control (50 nM): 91.8%; Normalized % Control (100 nM): 94.1%; Normalized % Control (200 nM): 100.2%; Normalized % Control (400 nM): 79.2%
CTC-TCT-GTA-GGC-CCG-CTT-GG (CTCTCTGTAGGCCCGCTTGG; chemistry not given here) [ISIS 12539] | – | – | % INHIBITION (JNK1 mRNA time course, t=0 h after 4 hour treatment): greater than 85%; % INHIBITION (JNK1 mRNA time course, t=4 h): about 95%; % INHIBITION (JNK1 mRNA time course, t=12 h): greater than or equal to 80%; % INHIBITION (JNK1 mRNA time course, t=48 h): greater than or equal to 80%; % INHIBITION (JNK1 mRNA time course, time 272 h [sic] (t=72 h in text)): ≥ 60%
